{"source": "patent US9695155B2", "about": "“Herbicidal substituted pyrimidinyloxy benzene compounds” (E. I. DU PONT DE NEMOURS AND COMPANY, priority 2013, dated 2017)", "key": {"kochia": {"test_system": "kochia", "assay": "Test A preemergence", "type": "in vivo, Kochia scoparia", "how_it_was_run": "(§1)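 Greenhouse pot test, loam/sand soil. Formulation: non-phytotoxic solvent mix plus surfactant. Pre: directed spray onto soil after sowing. Post: plants at 1–2 leaf, 2–10 cm. Rated visually vs untreated controls at ~10 d, 0 (no effect) to 100 (complete control).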"}, "ragweed": {"test_system": "ragweed", "assay": "Test A preemergence", "type": "in vivo, Ambrosia elatior", "how_it_was_run": "as §1"}, "Italian ryegrass [1]": {"test_system": "Italian ryegrass", "assay": "Test A preemergence", "type": "in vivo, Lolium multiflorum", "how_it_was_run": "as §1"}, "barnyardgrass [2]": {"test_system": "barnyardgrass", "assay": "Test A postemergence", "type": "in vivo, Echinochloa crus-galli", "conditions": "Echinochloa crus-galli, post-emergence, 240 h, 0 to 100 scale, 0 no effect, 100 complete control, read-out: Plant response rating, Barnyardgrass", "how_it_was_run": "as §1"}, "corn [3]": {"test_system": "corn", "assay": "Test A postemergence", "type": "in vivo, Zea mays", "conditions": "Zea mays, post-emergence, 240 h, 0 to 100 scale, 0 no effect, 100 complete control", "how_it_was_run": "as §1"}, "rice": {"test_system": "rice", "assay": "Test B flooded paddy test", "type": "in vivo, Oryza sativa", "conditions": "Oryza sativa; Flood, 250 g ai/ha; 0 to 100 scale where 0 is no effect and 100 is complete control; read-out: Plant response rating, Rice", "how_it_was_run": "(§2)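 Evaluation is visual, against untreated controls, 13 to 15 days after treatment. Before treatment, plants reached the 2-leaf stage; pots were then flooded 3 cm deep, compound was added to the water, and that level was maintained. Ratings run 0 to 100, with 100 meaning complete control.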"}, "Heteranthera limosa": {"test_system": "Heteranthera limosa", "assay": "Test B flooded paddy test", "type": "in vivo", "conditions": "Heteranthera limosa, Flood, 250 g ai/ha; 0 to 100 scale where 0 is no effect and 100 is complete control; read-out: Plant response rating, Ducksalad", "how_it_was_run": "as §2"}, "barnyardgrass [4]": {"test_system": "barnyardgrass", "assay": "Test B flooded paddy test", "type": "in vivo, Echinochloa crus-galli", "conditions": "Echinochloa crus-galli; Flood, 250 g ai/ha; 0 to 100 scale where 0 is no effect and 100 is complete control; read-out: Plant response rating, Barnyardgrass", "how_it_was_run": "as §2"}, "galium [5]": {"test_system": "galium", "assay": "Test C preemergence", "type": "in vivo, Galium aparine", "conditions": "Galium, pre-emergence", "how_it_was_run": "(§3)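 Plants were kept under greenhouse conditions for 13–15 days following spray. Pre-emergent application went to soil (loam–sand), post-emergent to foliage at 1–4 leaves. Evaluation: visual, percent control against untreated checks.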"}, "corn [6]": {"test_system": "corn", "assay": "Test C preemergence", "type": "in vivo, Zea mays", "conditions": "Zea mays, pre-emergence", "how_it_was_run": "as §3"}, "Italian ryegrass [7]": {"test_system": "Italian ryegrass", "assay": "Test C postemergence", "type": "in vivo, Lolium multiflorum", "how_it_was_run": "as §3"}, "galium [8]": {"test_system": "galium", "assay": "Test C postemergence", "type": "in vivo, Galium aparine", "conditions": "Galium, post-emergence", "how_it_was_run": "as §3"}, "corn [9]": {"test_system": "corn", "assay": "Test C postemergence", "type": "in vivo, Zea mays", "conditions": "Zea mays, post-emergence", "how_it_was_run": "as §3"}, "lambsquarters": {"test_system": "lambsquarters", "assay": "Test C postemergence", "type": "in vivo, Chenopodium album", "how_it_was_run": "as §3"}, "pigweed": {"test_system": "pigweed", "assay": "Test C postemergence", "type": "in vivo, Amaranthus retroflexus", "how_it_was_run": "as §3"}, "waterhemp": {"test_system": "waterhemp", "assay": "Test C postemergence", "type": "in vivo, Amaranthus rudis", "how_it_was_run": "as §3"}, "[10]": {"conditions": "31 g ai/ha, 0 to 100 scale where 0 is no effect and 100 is complete control, visual, approximately 10 days"}, "[11]": {"conditions": "31 g ai/ha, postemergence, visual rating, scale 0 to 100 (0 no effect, 100 complete control), 13 to 15 days"}}}
{"smiles": "N#Cc1cccc(Oc2ncc(Cl)cn2)c1-n1cc(C(F)F)cn1", "note": "[Compound 253, 3-(5-chloropyrimidin-2-yl)oxy-2-[4-(difluoromethyl)-1H-pyrazol-1-yl]benzonitrile]", "values": [{"measurement": "Plant response rating, Kochia", "setting": "kochia; [10]", "result": 90}, {"measurement": "Kochia plant response rating (0 to 100 scale)", "setting": "kochia; 125 g ai/ha", "result": 100}, {"measurement": "Plant response rating, Ragweed", "setting": "ragweed; [10]", "result": 20}, {"measurement": "Ragweed plant response rating (0 to 100 scale)", "setting": "ragweed; 125 g ai/ha", "result": 80}, {"measurement": "Plant response rating, Ryegrass, Italian", "setting": "Italian ryegrass [1]; [10]", "result": 20}, {"measurement": "Ryegrass, Italian plant response rating (0 to 100 scale)", "setting": "Italian ryegrass [1]; 125 g ai/ha", "result": 20}, {"measurement": "pest or weed control at 31 g/ha", "setting": "barnyardgrass [2]; 31 g ai/ha", "result": 20, "unit": "%"}, {"measurement": "pest or weed control at 125 g/ha", "setting": "barnyardgrass [2]; 125 g ai/ha", "result": 100, "unit": "%"}, {"measurement": "Corn plant response rating (crop injury, 0 = no effect, 100 = complete kill) at 31 g/ha", "setting": "corn [3]; 31 g ai/ha", "result": 20, "unit": "%"}, {"measurement": "Corn plant response rating (crop injury, 0 = no effect, 100 = complete kill) at 125 g/ha", "setting": "corn [3]; 125 g ai/ha", "result": 60, "unit": "%"}, {"measurement": "plant injury at 250 g/ha", "setting": "rice", "result": 25, "unit": "%"}, {"measurement": "pest or weed control at 250 g/ha", "setting": "Heteranthera limosa", "result": 75, "unit": "%"}, {"measurement": "pest or weed control at 250 g/ha", "setting": "barnyardgrass [4]", "result": 40, "unit": "%"}, {"measurement": "pest or weed control at 16 g/ha", "setting": "galium [5]; 16 g ai/ha, preemergence, scale 0 to 100 (0 no effect, 100 complete control), read-out: Galium plant response rating", "result": 70, "unit": "%"}, {"measurement": "pest or weed control at 125 g/ha", "setting": "galium [5]; 125 g ai/ha, preemergence, scale 0 (no effect) to 100 (complete control), read-out: Galium plant response rating", "result": 95, "unit": "%"}, {"measurement": "pest or weed control at 62 g/ha", "setting": "galium [5]; Preemergence, 62 g ai/ha, scale 0 to 100, 0 no effect, 100 complete control, read-out: Plant response rating, Galium", "result": 100, "unit": "%"}, {"measurement": "plant injury at 16 g/ha", "setting": "corn [6]; 16 g ai/ha, preemergence, scale 0 to 100 (0 no effect, 100 complete control), read-out: Corn plant response rating", "result": 0, "unit": "%"}, {"measurement": "plant injury at 125 g/ha", "setting": "corn [6]; 125 g ai/ha, preemergence, scale 0 (no effect) to 100 (complete control), read-out: Corn plant response rating", "result": 90, "unit": "%"}, {"measurement": "Corn plant response rating (crop injury, 0 = no effect, 100 = complete kill) at 62 g/ha", "setting": "corn [6]; Preemergence, 62 g ai/ha, scale 0 to 100, 0 no effect, 100 complete control", "result": 35, "unit": "%"}, {"measurement": "Ryegrass, Italian plant response rating", "setting": "Italian ryegrass [7]; [11]", "result": 0}, {"measurement": "pest or weed control at 16 g/ha", "setting": "Italian ryegrass [7]; Lolium multiflorum, post-emergence, 16 g ai/ha, postemergence, 0 is no effect, 100 is complete control, read-out: Plant response rating (0 to 100), Ryegrass, Italian", "result": 0, "unit": "%"}, {"measurement": "pest or weed control at 125 g/ha", "setting": "Italian ryegrass [7]; Lolium multiflorum, post-emergence, 125 g ai/ha, postemergence, visual rating, scale 0 to 100 (0 no effect, 100 complete control), read-out: Plant response rating, Ryegrass, Italian", "result": 0, "unit": "%"}, {"measurement": "pest or weed control at 62 g/ha", "setting": "Italian ryegrass [7]; Lolium multiflorum, post-emergence, Postemergence, 62 g ai/ha, scale 0 to 100 (0 no effect, 100 complete control), 13 to 15 days, read-out: Plant response rating, Ryegrass, Italian", "result": 0, "unit": "%"}, {"measurement": "pest or weed control at 16 g/ha", "setting": "galium [8]; 16 g ai/ha, postemergence, 0 is no effect, 100 is complete control, read-out: Plant response rating (0 to 100), Galium", "result": 45, "unit": "%"}, {"measurement": "pest or weed control at 31 g/ha", "setting": "galium [8]; 31 g ai/ha, postemergence, visual rating, scale 0 to 100 (0 no effect, 100 complete control), 13 to 15 days, read-out: Galium plant response rating", "result": 80, "unit": "%"}, {"measurement": "pest or weed control at 125 g/ha", "setting": "galium [8]; 125 g ai/ha, postemergence, visual rating, scale 0 to 100 (0 no effect, 100 complete control), read-out: Plant response rating, Galium", "result": 100, "unit": "%"}, {"measurement": "pest or weed control at 62 g/ha", "setting": "galium [8]; Postemergence, 62 g ai/ha, scale 0 to 100 (0 no effect, 100 complete control), 13 to 15 days, read-out: Plant response rating, Galium", "result": 80, "unit": "%"}, {"measurement": "plant injury at 16 g/ha", "setting": "corn [9]; 16 g ai/ha, postemergence, 0 is no effect, 100 is complete control, read-out: Plant response rating (0 to 100), Corn", "result": 5, "unit": "%"}, {"measurement": "plant injury at 31 g/ha", "setting": "corn [9]; 31 g ai/ha, postemergence, visual rating, scale 0 to 100 (0 no effect, 100 complete control), 13 to 15 days, read-out: Corn plant response rating", "result": 5, "unit": "%"}, {"measurement": "Corn plant response rating (crop injury, 0 = no effect, 100 = complete kill) at 125 g/ha", "setting": "corn [9]; 125 g ai/ha, postemergence, visual rating, scale 0 to 100 (0 no effect, 100 complete control)", "result": 25, "unit": "%"}, {"measurement": "Corn plant response rating (crop injury, 0 = no effect, 100 = complete kill) at 62 g/ha", "setting": "corn [9]; Postemergence, 62 g ai/ha, scale 0 to 100 (0 no effect, 100 complete control), 13 to 15 days", "result": 5, "unit": "%"}, {"measurement": "Lambsquarters plant response rating", "setting": "lambsquarters; [11]", "result": 80}, {"measurement": "pest or weed control at 16 g/ha", "setting": "lambsquarters; Chenopodium album, post-emergence, 16 g ai/ha, postemergence, 0 is no effect, 100 is complete control, read-out: Plant response rating (0 to 100), Lambsquarters", "result": 30, "unit": "%"}, {"measurement": "pest or weed control at 125 g/ha", "setting": "lambsquarters; Chenopodium album, post-emergence, 125 g ai/ha, postemergence, visual rating, scale 0 to 100 (0 no effect, 100 complete control), read-out: Plant response rating, Lambsquarters", "result": 95, "unit": "%"}, {"measurement": "pest or weed control at 62 g/ha", "setting": "lambsquarters; Chenopodium album, post-emergence, Postemergence, 62 g ai/ha, scale 0 to 100 (0 no effect, 100 complete control), 13 to 15 days, read-out: Plant response rating, Lambsquarters", "result": 80, "unit": "%"}, {"measurement": "Pigweed plant response rating", "setting": "pigweed; [11]", "result": 85}, {"measurement": "pest or weed control at 16 g/ha", "setting": "pigweed; Amaranthus retroflexus, post-emergence, 16 g ai/ha, postemergence, 0 is no effect, 100 is complete control, read-out: Plant response rating (0 to 100), Pigweed", "result": 85, "unit": "%"}, {"measurement": "pest or weed control at 125 g/ha", "setting": "pigweed; Amaranthus retroflexus, post-emergence, 125 g ai/ha, postemergence, visual rating, scale 0 to 100 (0 no effect, 100 complete control), read-out: Plant response rating, Pigweed", "result": 95, "unit": "%"}, {"measurement": "pest or weed control at 62 g/ha", "setting": "pigweed; Amaranthus retroflexus, post-emergence, Postemergence, 62 g ai/ha, scale 0 to 100 (0 no effect, 100 complete control), 13 to 15 days, read-out: Plant response rating, Pigweed", "result": 98, "unit": "%"}, {"measurement": "Waterhemp plant response rating", "setting": "waterhemp; [11]", "result": 75}, {"measurement": "pest or weed control at 16 g/ha", "setting": "waterhemp; Amaranthus tuberculatus, post-emergence, 16 g ai/ha, postemergence, 0 is no effect, 100 is complete control, read-out: Plant response rating (0 to 100), Waterhemp", "result": 75, "unit": "%"}, {"measurement": "pest or weed control at 125 g/ha", "setting": "waterhemp; Amaranthus tuberculatus, post-emergence, 125 g ai/ha, postemergence, visual rating, scale 0 to 100 (0 no effect, 100 complete control), read-out: Plant response rating, Waterhemp", "result": 85, "unit": "%"}, {"measurement": "pest or weed control at 62 g/ha", "setting": "waterhemp; Amaranthus tuberculatus, post-emergence, Postemergence, 62 g ai/ha, scale 0 to 100 (0 no effect, 100 complete control), 13 to 15 days, read-out: Plant response rating, Waterhemp", "result": 80, "unit": "%"}]}
